The record followed here is patent US20110152263A1, “COMPOSITION AND METHOD FOR INHIBITING NOROVIRUS INFECTION” (priority 2006, published 2011).

Series [1] relates to Norwalk virus binding to the H antigen. The experiment in a line: Saliva-based blocking EIA: Norwalk virus VLP binding to H antigen. On the set-up: species or system Norovirus. As to conditions: for EC50: Norwalk VLP binding to H antigen, read-out: EC50 rNorwalk H. From the text: (§1) A saliva based blocking assay offers several advantages for anti-Norovirus agent screening. First, the assay is a solid phase blocking assay which is simple and suitable for large scale screening. Second, the source of HBGAs used in the assay was from healthy human volunteers, which is likely to represent the natural forms of Norovirus receptors. Third, the assay is highly sensitive and specific. Finally, a panel of saliva samples can be assembled from different individuals representing different blood types, from which the results obtained in primary screenings can be validated.
(§2) To optimize the blocking assays, we have titrated all reagents used in the assays including the VLPs, the first and second antibodies, the blocking reagent (dried cow milk), and a panel of saliva samples from different donors. […] For comparison of daily results, eight control wells containing everything but compounds were included in each plate, and the assays were considered valid when the daily OD450 variations in these wells were less than 20%. Less than 1% of the total screening runs failed in our study.
(§3) Cow milk contains a large amount of variable proteins, lipids and glycans which can easily interfere with the assay particularly when a low concentration of compounds (μM) was used in our screening. To avoid any false-negative results, the step of addition of blotto in the EIA for all screening experiments in this study was removed.
(§4) Baculovirus-expressed recombinant capsid proteins of four Norovirus strains representing four distinct receptor binding patterns were studied: Norovirus strains Norwalk, VA387, VA207, and MOH. The procedures of production of Norovirus VLPs in insect cell Spodoptera frugiperda (Sf9) have described in “Expression, self-assembly, and antigenicity of the Norwalk virus capsid protein”, J Virol 66:6527-32, Jiang et al (1992), and in “Baculovirus expression and antigenic characterization of the capsid proteins of three Norwalk-like viruses”, Arch Virol 147:119-30, Jiang et al. (2002), the disclosures of which are incorporated herein by reference. Briefly, a cDNA from the 3′ end of the genome containing the viral capsid gene (open reading frame 2 [ORF-2] was cloned from the viral RNA extracted from stool specimens. The recombinant baculoviruses carry the viral capsid genes were constructed from the cloned cDNAs using the Bac to Bac expression system according to the manufacture's instructions (Invitrogen Life Technologies, Carlsbad, Calif.). VLPs were partially purified by sucrose gradient centrifugation and stored at −80° C. Protein concentrations were determined by measuring the optical density at 280 nm (OD280) using a GeneQuant spectrophotometer (Pharmacia, Mich.) and by comparison with a bovine serum albumin standard in a sodium dodecyl sulfate-polyacrylamide gel (25). The purity of VLPs used in this study was over 90% which was determined by SDS-PAGE analysis.
(§5) Saliva samples were collected from healthy adult volunteers under an approval of human subject research protocol by the Institutional Review Board at the Cincinnati Children's Hospital Medical Center. Except for gender and race, no other personal information was collected. A total of 5-10 ml of saliva was collected from each volunteer, and the samples were processed immediately after collection. To avoid potential Norovirus-specific antibodies that may interfere in the receptor binding assays, saliva samples were boiled at 100° C. for 10 min, and then centrifuged at 10,000×g for 5 min. The clear supernatant was stored at −80° C. until use. The HBGA types of the saliva samples were determined by enzyme immune assays with monoclonal antibodies specific to human HBGAs (8). Saliva sample from a type A donor was selected for the primary screening, and a total of 25 saliva samples of known ABO, secretor, and Lewis types were selected for further studies to confirm the primary screening results. […]

Series [2] has as its system Norwalk virus binding to the A antigen. The experiment in a line: Saliva-based blocking EIA: Norwalk virus VLP binding to A antigen. On the set-up: species or system Norovirus. Conditions: for EC50: Norwalk VLP binding to A antigen, read-out: EC50 rNorwalk A.
Excerpt: as §1, §2, §3, §4, §5

In series [3] the target is VA207 binding to the Lewis antigens. The experiment in a line: Saliva-based blocking EIA: VA207 VLP binding to Lewis antigens. As to conditions: VA207 VLP binding to Lewis antigen; read-out: EC50 rVA207 Le. Details: species or system Norovirus.
Excerpt: as §1, §2, §3, §4, §5

Series [4] has as its target VA387 binding to the B antigen. The experiment in a line: Saliva-based blocking EIA: VA387 VLP binding to B antigen. Details: species or system Norovirus. As to conditions: for EC50: VA387 VLP binding to B antigen saliva, read-out: EC50 rVA387 B; for inhibition of VA387 binding to the B antigen: one saliva sample.
Excerpt: as §1, §2, §3, §4, §5

The target of series [5] is VA387 VLPs binding to the A antigen. The experiment in a line: Saliva-based blocking EIA: VA387 VLP binding to type A saliva. Details: species or system Norovirus. Conditions: read-out: EC50 rVA387 A.
Excerpt: as §1, §2, §3, §4, §5

Series [6] concerns the target MOH binding to the B antigen. Put plainly: Saliva-based blocking EIA: MOH VLP binding to B antigen. Conditions: MOH VLP binding to type B saliva; read-out: EC50 rMOH B. Details: species or system Norovirus.
Excerpt: as §1, §2, §3, §4, §5

The target of series [7] is MOH binding to the A antigen. Put plainly: Saliva-based blocking EIA: MOH VLP binding to A antigen. As to conditions: MOH VLP binding to type A saliva; read-out: EC50 rMOH A. Details: species or system Norovirus.
Excerpt: as §1, §2, §3, §4, §5

In series [8] the test system is Human cervical carcinoma cells (HeLa). Put plainly: MTS cytotoxicity assay, HeLa cells. The class given is cell-based. As to conditions: 3 days, average of three experiments. In general terms: Formazan colour is commonly taken as a measure of viable cells.
The target in series [9] is VA387 binding to the H antigen. Put plainly: Saliva-based blocking EIA: VA387 VLP binding to H antigen. On the set-up: species or system Norovirus. Conditions: for EC50: VA387 VLP binding to H antigen saliva, read-out: EC50 rVA387 H; for inhibition of VA387 binding to the H antigen: one saliva sample.
Excerpt: as §1, §2, §3, §4, §5

SMILES strings stand for the structures.

For `CCCc1ccc(OCc2ccc(C(=O)N/N=C/c3ccc(Cl)cc3O)o2)cc1` [Compound 5], the “inhibition of Norwalk virus binding to the H antigen” value in series [1] is “inhibited”. Further, the EC50 in series [1] was 36.3 µM; in series [2], 18.2 µM; in series [3], above 100 µM; in series [4], 13.5 µM; in [5], 9.1 µM; in series [6], above 100 µM. In addition, the half-maximal effective concentration (EC50) was above 100 µM in series [7] and 7.2 µM in series [9]. Moreover, the “blocking of Norwalk virus binding to the A antigen” value in [2] is listed as “blocked”. Further, the “inhibition of VA387 binding to the B antigen” value (“inhibition … to the B antigen” for short) in series [4] is “dose-dependant inhibition”. This molecule registered a cytotoxic concentration (CC50) in series [8] of 46.7 µM. Besides, the “inhibition of VA387 binding to the H antigen” value in series [9] is on record as “dose-dependant inhibition”.
Turning to `CCCOc1ccc(-c2cc(C(=O)N/N=C/c3ccc(OCC)cc3)[nH]n2)cc1` [Compound 14], the half-maximal effective concentration (EC50) is above 100 µM in series [1]; above 100 µM in [2]; above 100 µM in [3]; above 100 µM in [4]; 13.7 µM in series [5]; above 100 µM in series [6]. Besides, the concentration for a half-maximal effect (EC50) in series [7] and in [9] was above 100 µM each time. In addition, the “inhibition … to the B antigen” value in [4] is recorded as “did not have any inhibitory activity”. The CC50 in series [8] was determined as 12.3 µM. Moreover, the “inhibition of VA387 binding to the H antigen” value in series [9] was “did not have any inhibitory activity”.
Turning to `Cc1cc(O)c(Sc2c(O)cc(C)cc2C(C)(C)c2ccccc2)c(C(C)(C)c2ccccc2)c1` [Compound 13], the 50% effective concentration (EC50) in series [1] was above 100 µM; in [2], above 100 µM; in series [3], above 100 µM; in series [4], 49.5 µM; in [5], 13.6 µM; in series [6] it was above 100 µM. Moreover, the EC50 in series [7] is above 100 µM; in [9], 48.1 µM. Moreover, the “inhibition … to the B antigen” value in [4] was “dose-dependant inhibition”. Besides, half-maximal cytotoxicity in series [8] (CC50) was put at 70.6 µM. Also, the “inhibition of VA387 binding to the H antigen” value in series [9] is “dose-dependant inhibition”.

The EC50 is the concentration needed to bring the measured effect to its halfway point. In general, CC50 refers to the concentration at which the toxic effect on the cells reaches its halfway point. Read a high CC50 as lower toxicity to the cells.
